Test results reported in patent US20080221205A1, “FURAN DERIVATIVES FOR PREVENTING AND CURING OSTEOPOROSIS AND PHARMACEUTICAL COMPOSITIONS CONTAINING THE SAME” (priority 2002, published 2008).
Entries after “also recorded” stand apart in the source; their conditions may differ.

Tests used:
[1] = system: ovariectomized white mice; assay: Bone mineral densitometer test, preventive effect on osteoporosis; format: in vivo; conditions: for Change in BMD, %: test group, oral 10 mg per mouse after ovariectomy
Procedure: After ovariectomy, female white mice weighing about 250 g were orally administered with 10 mg of the Compound 1 per mice for four weeks. Bone mineral density (BMD) was measured before the ovariectomy and every week during the administration of the Compound 1, using a bone mineral densitometer, XCT 540 Research SA made in Germany.
After anesthetizing the mice being bred in cages by intraperitoneal injection of a mixture of Ketamine HCl (ketara 10 mg/kg) and 2% xylazine HCl (Roupun 0.15 ml/kg), BMD measurement was made at a voxel size of 0.1×0.1 mm^2 and threshold values of 280 mg/cm^2 for cancellous bone and 500 mg/cm^2 for compact bone. The analysis sites at the proximal tibias were determined by Scout scans (10 mm/sec), and BMD was measured at three slices at the determined sites by CT scans (7 mm/sec). BMD measurement was performed twice or more at the same site every week during four weeks.

[2] = system: ALP activity in HOS cells; assay: Alkaline phosphatase (osteoblast marker enzyme) activity in HOS cells; format: cell-based, human; conditions: concentration not given
Text: In the following tests, three kinds of cell lines were used. The human osteosarcoma cell lines, MG-63 (ATCC No. CRL-1427) and HOS (ATCC No. CRL-1543), and mouse muscle C2C12 muscle cells (ATCC No. CRL-1772) were purchased from ATCC (American Type Culture Collection, Rockville, USA), and cultured in Dulbecco's modified Eagle's medium (DMEM) supplemented with 10% fetal bovine serum (FBS).
To examine whether the Compound 1 affects positively or negatively osteoblast activity, alkaline phosphatase (ALP) activity was measured. HOS cells were aliquotted onto a 96-well microplate at a density of 5×10^3 cells per well, and cultured. When forming a monolayer, the cells were treated with the naturally extracted compound (Compound 1) at prescribed concentrations. After incubation in 10% FBS-containing DMEM for 48 hrs, the cells were treated with 0.1% Triton X-100/saline for 30 min at 37° C. A portion of each cell lysate was reacted with 0.1 N glycine-NaCh buffer (pH 10.4) for 30 min at 37° C. in the presence of 100 mM nitrophenyl phosphate (PNPP) as a substrate of alkaline phosphate. The amount of PNP (ρ-nitrophenol) released from the substrate PNPP was determined by measuring absorbance at 405 nm. Protein amount was determined by a modified Lowry method, and enzyme activity was designated as nmol substrate cleaved/h/mg protein.

Structure (SMILES): O=Cc1ccc(CO)o1 [Compound 1, 5-hydroxymethylfuran-2-carboxyaldehyde]
- Change in BMD, % ([1]; Week 1, control −7.5): −2.5%
- Change in BMD, % ([1]; Week 2, control −11.6): −3.2%
- Change in BMD, % ([1]; Week 3, control −14.9): −1.8%
- Change in BMD, % ([1]; Week 4, control −18.6): 3.7%
- BMD compared to that before ovariectomy (in words) ([1]; oral 10 mg/day for four weeks after ovariectomy): increase in BMD; also recorded: remarkably increased bone mineral density (BMD)
- Alkaline phosphatase activity compared to control [2]: about 121%
- Alkaline phosphatase activity compared to control ([2]; listed as compound prepared in Example 1): 120%
